According to patent publication US7329664B2, “Substituted (7-pyridyl-4-phenylamino-quinazolin-2-yl)-methanol analogues” (Neurogen Corporation, priority 2003, dated 2008):

Assays:
human capsaicin receptor [1] = target: T1, human capsaicin receptor (Homo sapiens, UniProt Q8NER1); assay: Calcium mobilization assay, capsaicin receptor antagonist activity (Example 6); format: cell-based; conditions: read-out: IC50 in standard assay of capsaicin receptor activity
T1 construct: transfected with the pBK-CMV expression construct encoding the full length human capsaicin receptor; expressed in transfected cells
T1 sequence (Q8NER1 whole entry): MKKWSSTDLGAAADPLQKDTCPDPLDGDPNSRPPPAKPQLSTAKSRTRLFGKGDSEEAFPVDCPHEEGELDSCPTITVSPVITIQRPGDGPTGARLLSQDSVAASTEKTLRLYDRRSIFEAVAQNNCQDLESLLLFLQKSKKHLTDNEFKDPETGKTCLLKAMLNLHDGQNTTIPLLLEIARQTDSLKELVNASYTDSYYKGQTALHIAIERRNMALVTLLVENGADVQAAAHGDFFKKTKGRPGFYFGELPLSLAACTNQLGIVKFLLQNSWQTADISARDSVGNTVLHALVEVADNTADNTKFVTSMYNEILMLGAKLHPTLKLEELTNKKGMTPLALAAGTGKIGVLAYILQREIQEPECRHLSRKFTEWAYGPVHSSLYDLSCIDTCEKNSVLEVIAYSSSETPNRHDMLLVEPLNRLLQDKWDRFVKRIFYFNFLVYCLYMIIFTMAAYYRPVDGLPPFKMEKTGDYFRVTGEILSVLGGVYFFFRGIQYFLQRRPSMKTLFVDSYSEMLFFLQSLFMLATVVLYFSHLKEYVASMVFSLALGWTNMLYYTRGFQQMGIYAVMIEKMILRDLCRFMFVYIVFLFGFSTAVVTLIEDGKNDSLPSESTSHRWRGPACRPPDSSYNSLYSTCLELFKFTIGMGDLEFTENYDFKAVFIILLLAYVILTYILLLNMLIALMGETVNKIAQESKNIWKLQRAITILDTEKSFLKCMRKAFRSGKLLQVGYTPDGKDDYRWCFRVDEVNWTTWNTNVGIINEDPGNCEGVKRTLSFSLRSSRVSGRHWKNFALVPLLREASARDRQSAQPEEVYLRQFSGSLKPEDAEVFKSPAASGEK
Protocol: Human embryonic kidney (HEK293) cells were transfected with the pBK-CMV expression construct encoding the full length human capsaicin receptor using standard methods. The transfected cells were selected for two weeks in media containing G418 (400 μg/ml) to obtain a pool of stably transfected cells. Independent clones were isolated from this pool by limiting dilution to obtain clonal stable cell lines for use in subsequent experiments.
This Example illustrates representative calcium mobilization assays for use in evaluating test compounds for agonist and antagonist activity.
Cells transfected with expression plasmids (as described in Example 4) and thereby expressing human capsaicin receptor are seeded and grown to 70-90% confluency in FALCON black-walled, clear-bottomed 96-well plates (#3904, BECTON-DICKINSON, Franklin Lakes, N.J.). The culture medium is emptied from the 96 well plates and FLUO-3 AM calcium sensitive dye (Molecular Probes, Eugene, Oreg.) is added to each well (dye solution: 1 mg FLUO-3 AM, 440 μL DMSO and 440 μl 20% pluronic acid in DMSO, diluted 1:250 in Krebs-Ringer HEPES (KRH) buffer (25 mM HEPES, 5 mM KCl, 0.96 mM NaH2PO4, 1 mM MgSO4, 2 mM CaCl2, 5 mM glucose, 1 mM probenecid, pH 7.4), 50 μl diluted solution per well). […] After the incubation, the dye is emptied from the plates, and the cells are washed once with KRH buffer, and resuspended in KRH buffer.
(§1) To measure the ability of a test compound to agonize or antagonize a calcium mobilization response in cells expressing capsaicin receptors to capsaicin or other vanilloid agonist, the EC50 of the agonist capsaicin is first determined. An additional 20 μl of KRH buffer and 1 μl DMSO is added to each well of cells, prepared as described above. 100 μl capsaicin in KRH buffer is automatically transferred by the FLIPR instrument to each well. Capsaicin-induced calcium mobilization is monitored using either FLUOROSKAN ASCENT (Labsystems; Franklin, Mass.) or FLIPR (fluorometric imaging plate reader system; Molecular Devices, Sunnyvale, Calif.) instruments. […] In this equation, y is the maximum fluorescence signal, x is the concentration of the agonist or antagonist (in this case, capsaicin), a is the Emax, b corresponds to the EC50 value and c is the Hill coefficient. […]
Test compounds are dissolved in DMSO, diluted in 20 μl KRH buffer so that the final concentration of test compounds in the assay well is between 1 μM and 5 μM, and added to cells prepared as described above. […] Just prior to determining the fluorescence response, 100 μl capsaicin in KRH buffer at twice the EC50 concentration determined as described above is automatically added by the FLIPR instrument to each well of the 96 well plate for a final sample volume of 200 μl and a final capsaicin concentration equal to the EC50. […]

human capsaicin receptor [2] = target: T1, human capsaicin receptor; assay: Calcium mobilization assay, agonist response to capsaicin (Example 6); format: cell-based; conditions: cells expressing human capsaicin receptor, positive control; read-out: approximate EC90 concentration
Protocol: Cells transfected with expression plasmids (as described in Example 4) and thereby expressing human capsaicin receptor are seeded and grown to 70-90% confluency in FALCON black-walled, clear-bottomed 96-well plates (#3904, BECTON-DICKINSON, Franklin Lakes, N.J.). The culture medium is emptied from the 96 well plates and FLUO-3 AM calcium sensitive dye (Molecular Probes, Eugene, Oreg.) is added to each well (dye solution: 1 mg FLUO-3 AM, 440 μL DMSO and 440 μl 20% pluronic acid in DMSO, diluted 1:250 in Krebs-Ringer HEPES (KRH) buffer (25 mM HEPES, 5 mM KCl, 0.96 mM NaH2PO4, 1 mM MgSO4, 2 mM CaCl2, 5 mM glucose, 1 mM probenecid, pH 7.4), 50 μl diluted solution per well). […]
as §1, with “An additional 20 μl of KRH buffer and 1 μl DMSO is added to each well of cells, prepared as described above. 100 μl capsaicin in KRH buffer is automatically transferred by the FLIPR instrument to each well.” left out

| Structure (SMILES) | IC50 (human capsaicin receptor [1]) [nM] | EC90 (human capsaicin receptor [2]) [nM] |
| --- | --- | --- |
| COCc1nc(Nc2ccc(C(F)(F)F)cc2)c2ccc(-c3ncccc3Cl)nc2n1 [Compound 2, [7-(3-Chloro-pyridin-2-yl)-2-methoxymethyl-pyrido[2,3-d]pyrimidin-4-yl]-(4-trifluoromethyl-phenyl)-amine] | < 10 | – |
| COCc1nc(Nc2ccc(C(F)(F)F)cc2)c2ccc(-c3ncccc3C)cc2n1 [Compound 3, [2-Methoxymethyl-7-(3-methylpyridin-2-yl)-quinazolin-4-yl)-(4-trifluoromethylphenyl)-amine] | < 10 | – |
| CC(C)COCc1nc(Nc2ccc(C(F)(F)F)cn2)c2ccc(-c3ncccc3C(F)(F)F)nc2n1 [Compound 132, [2-lsobutoxymethyl-7-(3-trifluoromethyl-pyridin-2-yl)-pyrido[2,3-d]pyrimidin-4-yl]-(5-trifluoromethyl-pyridin-2-yl)-amine] | < 10 | – |
| COCc1nc(Nc2ccc(C(F)(F)F)cn2)c2ccc(-c3ncccc3C(F)(F)F)nc2n1 [Compound 133, [2-Methoxymethyl-7-(3-trifluoromethyl-pyridin-2-yl)-pyrido[2,3-d]pyrimidin-4-yl]-(5-trifluoromethy1-pyridin-2-yl)-amine] | < 10 | – |
| COc1cc(CNC(=O)CCCC/C=C/C(C)C)ccc1O [capsaicin] | – | ~100 |
